ChEMBL document CHEMBL5375990, “Optimization of Pharmacokinetic and In Vitro Safety Profile of a Series of Pyridine Diamide Indirect AMPK Activators” (J Med Chem, 2023)

Test system: not listed separately
Assay: Activation of AMPK in human HepG2 cells incubated for 2 hrs
Format: cell-based
Conditions: HepG2, 2 h

Row | SMILES | EC50 [nM]
1 | COc1ccc(C(=O)C2CCN(C(=O)c3ccc(C(=O)N[C@@H]4CCN(Cc5ccc(C#N)cc5)C[C@@H]4F)cn3)CC2)cc1 | 47
2 | COc1ccc(C(=O)C2CCN(C(=O)c3ccc(C(=O)N[C@H]4CCN(Cc5ccc(C#N)cc5)C[C@@H]4C)cn3)CC2)cc1 | 65
3 | N#Cc1ccc(CN2CC[C@H](NC(=O)c3ccc(C(=O)N4CCC(C(=O)c5ccc(N6CCOCC6)cc5)CC4)nc3)[C@@H](F)C2)cc1 | 70

The next molecules have a lower EC50 than those just listed; values first:

Row | EC50 [nM] | SMILES
4 | 28 | COc1ccc(C(=O)C2CCN(C(=O)c3ccc(C(=O)NC4CCN(Cc5ccc(C#N)cc5)CC4(F)F)cn3)CC2)cc1 (stereo unspecified)
5 | 10 | COc1ccc(C(=O)C2CCN(C(=O)c3cc(C(F)(F)F)c(C(=O)NC4CCN(Cc5ccc(C#N)cc5)CC4)cn3)CC2)cc1

Target: 5'-AMP-activated protein kinase
Assay: Activation of AMPK in mouse C2C12 cells incubated for 2 hrs
Format: cell-based
Conditions: not given

Row | SMILES | EC50 [nM]
6 | COc1ccc(C(=O)C2CCN(C(=O)c3ccc(C(=O)N[C@@H]4CCN(Cc5ccc(C#N)cc5)C[C@@H]4F)cn3)CC2)cc1 | 193
7 | COc1ccc(C(=O)C2CCN(C(=O)c3ccc(C(=O)N[C@H]4CCN(Cc5ccc(C#N)cc5)C[C@@H]4C)cn3)CC2)cc1 | 236
8 | N#Cc1ccc(CN2CC[C@H](NC(=O)c3ccc(C(=O)N4CCC(C(=O)c5ccc(N6CCOCC6)cc5)CC4)nc3)[C@@H](F)C2)cc1 | 217

Next, values leading:

Row | EC50 [nM] | SMILES
9 | 50 | COc1ccc(C(=O)C2CCN(C(=O)c3ccc(C(=O)NC4CCN(Cc5ccc(C#N)cc5)CC4(F)F)cn3)CC2)cc1 (stereo unspecified)
10 | 28 | COc1ccc(C(=O)C2CCN(C(=O)c3cc(C(F)(F)F)c(C(=O)NC4CCN(Cc5ccc(C#N)cc5)CC4)cn3)CC2)cc1

Test system: HepG2
Assay: Inhibition of mitochondrial function in human HepG2 cells assessed as reduction in ATP production
Format: functional, cell-based
Conditions: not given

Row | SMILES | IC50 [nM]
11 | COc1ccc(C(=O)C2CCN(C(=O)c3ccc(C(=O)N[C@@H]4CCN(Cc5ccc(C#N)cc5)C[C@@H]4F)cn3)CC2)cc1 | 800
12 | COc1ccc(C(=O)C2CCN(C(=O)c3ccc(C(=O)N[C@H]4CCN(Cc5ccc(C#N)cc5)C[C@@H]4C)cn3)CC2)cc1 | 983
13 | N#Cc1ccc(CN2CC[C@H](NC(=O)c3ccc(C(=O)N4CCC(C(=O)c5ccc(N6CCOCC6)cc5)CC4)nc3)[C@@H](F)C2)cc1 | 2690

Other lines, results leading:

Row | IC50 [nM] | SMILES
14 | 256 | COc1ccc(C(=O)C2CCN(C(=O)c3ccc(C(=O)NC4CCN(Cc5ccc(C#N)cc5)CC4(F)F)cn3)CC2)cc1 (stereo unspecified)
15 | 456 | COc1ccc(C(=O)C2CCN(C(=O)c3cc(C(F)(F)F)c(C(=O)NC4CCN(Cc5ccc(C#N)cc5)CC4)cn3)CC2)cc1

Target: hERG (KCNH2) (Homo sapiens, UniProt Q12809)
Sequence (Q12809 whole entry): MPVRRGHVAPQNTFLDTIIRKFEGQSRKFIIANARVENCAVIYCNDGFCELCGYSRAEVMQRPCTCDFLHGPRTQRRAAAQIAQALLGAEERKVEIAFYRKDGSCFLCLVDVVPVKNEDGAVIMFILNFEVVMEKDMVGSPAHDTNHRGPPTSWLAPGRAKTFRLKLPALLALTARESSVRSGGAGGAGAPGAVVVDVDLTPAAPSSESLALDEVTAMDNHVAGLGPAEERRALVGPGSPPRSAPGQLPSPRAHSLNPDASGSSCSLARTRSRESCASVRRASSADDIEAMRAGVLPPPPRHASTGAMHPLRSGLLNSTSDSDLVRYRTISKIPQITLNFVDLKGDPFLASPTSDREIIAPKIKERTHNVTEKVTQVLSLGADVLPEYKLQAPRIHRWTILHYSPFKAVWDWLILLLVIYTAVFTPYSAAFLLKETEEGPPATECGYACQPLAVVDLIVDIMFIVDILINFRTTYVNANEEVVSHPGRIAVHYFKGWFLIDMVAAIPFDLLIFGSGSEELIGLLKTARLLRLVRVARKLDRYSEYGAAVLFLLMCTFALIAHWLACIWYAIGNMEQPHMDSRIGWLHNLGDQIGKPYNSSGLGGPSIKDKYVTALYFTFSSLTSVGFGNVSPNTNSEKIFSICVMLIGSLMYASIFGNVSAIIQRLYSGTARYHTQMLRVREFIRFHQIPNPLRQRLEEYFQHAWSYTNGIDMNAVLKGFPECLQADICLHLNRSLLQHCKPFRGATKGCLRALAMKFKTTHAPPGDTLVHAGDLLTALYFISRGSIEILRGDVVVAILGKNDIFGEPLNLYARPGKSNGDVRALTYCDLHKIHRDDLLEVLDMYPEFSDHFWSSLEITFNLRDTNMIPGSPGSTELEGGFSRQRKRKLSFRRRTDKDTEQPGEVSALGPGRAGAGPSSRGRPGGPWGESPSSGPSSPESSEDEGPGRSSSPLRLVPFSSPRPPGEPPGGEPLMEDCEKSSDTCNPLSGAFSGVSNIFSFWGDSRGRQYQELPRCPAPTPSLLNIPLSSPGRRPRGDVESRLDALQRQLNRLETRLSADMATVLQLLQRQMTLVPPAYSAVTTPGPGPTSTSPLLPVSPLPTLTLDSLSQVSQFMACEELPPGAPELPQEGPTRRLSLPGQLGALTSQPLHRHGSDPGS
Assay: Inhibition of hERG at 10 uM relative to control
Format: toxicity
Conditions: not given

Row | SMILES | inhibition at 10 µM [%]
16 | COc1ccc(C(=O)C2CCN(C(=O)c3ccc(C(=O)N[C@@H]4CCN(Cc5ccc(C#N)cc5)C[C@@H]4F)cn3)CC2)cc1 | 67.4
17 | COc1ccc(C(=O)C2CCN(C(=O)c3ccc(C(=O)NC4CCN(Cc5ccc(C#N)cc5)CC4(F)F)cn3)CC2)cc1 (stereo unspecified) | 65

Target: T1, Cytochrome P450 3A4 (Homo sapiens, UniProt P08684)
T1 sequence (P08684 whole entry): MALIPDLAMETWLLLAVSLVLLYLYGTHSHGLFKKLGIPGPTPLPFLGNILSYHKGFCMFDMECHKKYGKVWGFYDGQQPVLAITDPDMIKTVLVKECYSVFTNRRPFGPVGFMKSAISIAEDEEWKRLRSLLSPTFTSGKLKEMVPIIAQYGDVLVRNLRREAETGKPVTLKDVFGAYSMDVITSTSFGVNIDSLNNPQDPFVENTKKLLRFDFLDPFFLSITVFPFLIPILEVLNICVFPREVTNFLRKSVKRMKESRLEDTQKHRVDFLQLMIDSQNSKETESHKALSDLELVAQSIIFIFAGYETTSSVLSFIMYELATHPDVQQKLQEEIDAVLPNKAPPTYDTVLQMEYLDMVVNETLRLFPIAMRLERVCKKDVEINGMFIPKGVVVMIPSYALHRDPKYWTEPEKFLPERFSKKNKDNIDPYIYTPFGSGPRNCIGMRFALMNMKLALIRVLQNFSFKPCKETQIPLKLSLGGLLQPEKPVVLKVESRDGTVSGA
Assay: Inhibition of CYP3A4 (unknown origin)
Format: ADME
Conditions: not given

Row | IC50 [nM] | SMILES
18 | > 10000 | COc1ccc(C(=O)C2CCN(C(=O)c3ccc(C(=O)N[C@@H]4CCN(Cc5ccc(C#N)cc5)C[C@@H]4F)cn3)CC2)cc1
19 | > 10000 | COc1ccc(C(=O)C2CCN(C(=O)c3ccc(C(=O)NC4CCN(Cc5ccc(C#N)cc5)CC4(F)F)cn3)CC2)cc1 (stereo unspecified)
20 | > 10000 | COc1ccc(C(=O)C2CCN(C(=O)c3cc(C(F)(F)F)c(C(=O)NC4CCN(Cc5ccc(C#N)cc5)CC4)cn3)CC2)cc1

Target: T1, Cytochrome P450 3A4
Assay: Inhibition of CYP3A4 (unknown origin) in presence of NADPH
Format: ADME
Conditions: not given

Row | IC50 [nM] | SMILES
21 | > 10000 | COc1ccc(C(=O)C2CCN(C(=O)c3ccc(C(=O)N[C@@H]4CCN(Cc5ccc(C#N)cc5)C[C@@H]4F)cn3)CC2)cc1
22 | > 10000 | COc1ccc(C(=O)C2CCN(C(=O)c3ccc(C(=O)NC4CCN(Cc5ccc(C#N)cc5)CC4(F)F)cn3)CC2)cc1 (stereo unspecified)
23 | 2800 | COc1ccc(C(=O)C2CCN(C(=O)c3cc(C(F)(F)F)c(C(=O)NC4CCN(Cc5ccc(C#N)cc5)CC4)cn3)CC2)cc1

Test system: not listed separately
Assay: Microsomal stability in rat liver microsome assessed as half life
Format: ADME
Conditions: liver microsomes

Row | SMILES | half-life [h]
24 | COc1ccc(C(=O)C2CCN(C(=O)c3ccc(C(=O)N[C@@H]4CCN(Cc5ccc(C#N)cc5)C[C@@H]4F)cn3)CC2)cc1 | 4.95
25 | N#Cc1ccc(CN2CC[C@H](NC(=O)c3ccc(C(=O)N4CCC(C(=O)c5ccc(N6CCOCC6)cc5)CC4)nc3)[C@@H](F)C2)cc1 | 1.22

Continued, values first:

Row | half-life [h] | SMILES
26 | 2.48 | COc1ccc(C(=O)C2CCN(C(=O)c3ccc(C(=O)NC4CCN(Cc5ccc(C#N)cc5)CC4(F)F)cn3)CC2)cc1 (stereo unspecified)
27 | 0.733 | COc1ccc(C(=O)C2CCN(C(=O)c3cc(C(F)(F)F)c(C(=O)NC4CCN(Cc5ccc(C#N)cc5)CC4)cn3)CC2)cc1

Test system: not listed separately
Assay: Microsomal stability in human liver microsome assessed as half life
Format: ADME, microsomes
Conditions: liver microsomes

Row | SMILES | half-life [h]
28 | COc1ccc(C(=O)C2CCN(C(=O)c3ccc(C(=O)N[C@@H]4CCN(Cc5ccc(C#N)cc5)C[C@@H]4F)cn3)CC2)cc1 | 8.23
29 | N#Cc1ccc(CN2CC[C@H](NC(=O)c3ccc(C(=O)N4CCC(C(=O)c5ccc(N6CCOCC6)cc5)CC4)nc3)[C@@H](F)C2)cc1 | 2.63

The remaining lines, values ahead:

Row | half-life [h] | SMILES
30 | 1.23 | COc1ccc(C(=O)C2CCN(C(=O)c3ccc(C(=O)NC4CCN(Cc5ccc(C#N)cc5)CC4(F)F)cn3)CC2)cc1 (stereo unspecified)
31 | 1.48 | COc1ccc(C(=O)C2CCN(C(=O)c3cc(C(F)(F)F)c(C(=O)NC4CCN(Cc5ccc(C#N)cc5)CC4)cn3)CC2)cc1

Test system: not listed separately
Assay: Clearance in rat
Format: ADME
Conditions: in vivo

Row | clearance [mL/min/kg] | SMILES
32 | 33 | COc1ccc(C(=O)C2CCN(C(=O)c3ccc(C(=O)N[C@@H]4CCN(Cc5ccc(C#N)cc5)C[C@@H]4F)cn3)CC2)cc1
33 | 35 | COc1ccc(C(=O)C2CCN(C(=O)c3cc(C(F)(F)F)c(C(=O)NC4CCN(Cc5ccc(C#N)cc5)CC4)cn3)CC2)cc1
34 | 145 | COc1ccc(C(=O)C2CCN(C(=O)c3ccc(C(=O)N[C@H]4CCN(Cc5ccc(C#N)cc5)C[C@@H]4C)cn3)CC2)cc1

Test system: not listed separately
Assay: Dissociation constant, pKa of compound
Format: physicochemical
Conditions: not given

Row | pKa | SMILES
35 | 4.9 | COc1ccc(C(=O)C2CCN(C(=O)c3ccc(C(=O)N[C@@H]4CCN(Cc5ccc(C#N)cc5)C[C@@H]4F)cn3)CC2)cc1
36 | 2.5 | COc1ccc(C(=O)C2CCN(C(=O)c3ccc(C(=O)NC4CCN(Cc5ccc(C#N)cc5)CC4(F)F)cn3)CC2)cc1 (stereo unspecified)
